The test system of test [1] is NCl-H460 human non-small-cell lung cancer cells. Briefly: Inhibition of cell proliferation, crystal violet staining. Format: cell-based. As to conditions: NCl-H460, 4 days incubation. Here is the method:
(§1) Cell cultures of the following cell lines were prepared in 96-well microtiter plates: • 1. MaTu/ADR multidrug-resistant human breast tumor cells (Epo GmbH Berlin), 5000 cells/well. • 2. HCT116 human colon tumor cells (ATCC CCL-247), 3000 cells/well. • 3. NCl-H460 human non-small-cell lung cancer cells (ATCC HTB-177), 3000 cells/well. • 4. DU145 human prostate tumor cells (ATCC HTB-81), 5000 cells/well. • 5. HMVEC human primary dermal microvascular endothelial cells, 7500 cells/well.
(§2) After 24 hours of incubation in a cell culture incubator at 37° C., the cells of a microtiter plate were stained with crystal violet (reference plate), while the cells in the test plates were incubated for 4 days with the test substances in the concentrations […], as well as with the DMSO solvent by itself (solvent control). The cell proliferation was determined by staining cells with crystal violet. The extinction of the crystal violet was determined by photometry at 595 nm. The percentage of the change in the cell number in the test plates was determined after the extinction values were normalized to the reference plate (0%) and to the solvent control (100%). The semi-maximal inhibition of the cell growth (IC50) was determined as the substance concentration, in which 50% of the cell number of the solvent controls were present.

The test system of test [2] is HMVEC human primary dermal microvascular endothelial cells. The test is described as above. The test is classed as cell-based. As to conditions: 4 days incubation. Here is the method:
as §1, §2

In test [3] the test system is DU145 human prostate tumor cells. The test is described as above. Format: cell-based. As to conditions: DU145, 4 days incubation. Here is the method: as §1, §2
Test [4] has as its system HCT116 human colon tumor cells. Described as above. The test is classed as cell-based. As to conditions: HCT116, 4 days incubation. Here is the method: as §1, §2
Test [5] has as its system MaTu/ADR multidrug-resistant human breast tumor cells. The description is as above. Format: cell-based. As to conditions: 4 days incubation. Here is the method:
as §1, §2

For test [6], the target named is T1, tubulin (microtubular protein purified from pig brains) (Sus scrofa, UniProt P02550+P02554).
T1 construct: microtubular protein was purified from pig brains via cydic assembling/disassembling; from tissue; host or cells: pig brain
T1 sequence (P02550 whole entry): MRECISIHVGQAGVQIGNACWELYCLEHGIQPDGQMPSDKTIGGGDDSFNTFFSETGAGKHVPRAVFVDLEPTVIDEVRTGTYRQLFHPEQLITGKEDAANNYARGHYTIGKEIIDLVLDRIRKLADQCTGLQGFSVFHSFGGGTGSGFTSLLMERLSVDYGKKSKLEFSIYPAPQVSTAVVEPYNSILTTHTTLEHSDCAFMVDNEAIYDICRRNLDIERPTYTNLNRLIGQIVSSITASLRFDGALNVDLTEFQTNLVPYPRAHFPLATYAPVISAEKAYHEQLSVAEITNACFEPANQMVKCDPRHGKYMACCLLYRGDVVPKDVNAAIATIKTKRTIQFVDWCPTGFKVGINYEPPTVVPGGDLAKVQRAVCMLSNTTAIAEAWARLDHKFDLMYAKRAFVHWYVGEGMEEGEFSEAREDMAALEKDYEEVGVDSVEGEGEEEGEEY
T1 sequence (P02554 whole entry): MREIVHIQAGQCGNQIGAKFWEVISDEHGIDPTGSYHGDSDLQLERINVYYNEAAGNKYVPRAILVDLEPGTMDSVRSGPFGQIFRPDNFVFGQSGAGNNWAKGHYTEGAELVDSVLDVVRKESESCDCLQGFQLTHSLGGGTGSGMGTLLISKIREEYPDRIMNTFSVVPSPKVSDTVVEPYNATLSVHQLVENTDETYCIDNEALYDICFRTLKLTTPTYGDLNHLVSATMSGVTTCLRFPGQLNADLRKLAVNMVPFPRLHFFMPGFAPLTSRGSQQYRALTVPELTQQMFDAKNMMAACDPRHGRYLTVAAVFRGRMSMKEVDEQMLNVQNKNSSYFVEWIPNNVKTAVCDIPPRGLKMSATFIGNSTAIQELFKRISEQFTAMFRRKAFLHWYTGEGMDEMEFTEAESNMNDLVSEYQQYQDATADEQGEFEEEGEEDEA
Briefly: Inhibition of tubulin polymerization (turbidimetry at 340 nm). The test is classed as biochemical. As to conditions: pig brain microtubular protein 1 mg/ml, 0.25 mmol GTP, 37° C. Here is the method: The in-vitro testing of the tubulin polymerization influence was performed as follows:
According to Shelanski et al. (Shelanski et al. Proc. Natl. Acad. Sci. USA 1973, 70, 765-8), microtubular protein was purified from pig brains via cydic assembling/disassembling. The buffer system used had the following composition: 20 mmol of PIPES (1,4-piperazine-diethane-sulfonic acid, pKa 6.8), 80 mmol of NaCl, 0.5 mmol of MgCl2, 1 mmol of EGTA [ethylene glycol-bis-(2-aminoethylene)-tetraacetic acid].
For active ingredient testing, protein concentrations of 1 mg/ml (about 10^−5 mmol of tubulin) were used. The determination of protein was carried out according to the Lowry Method (Lowry et al. J. Biol. Chem. 1951, 193, 265-75) with bovine serum albumin as a standard. The assembling of microtubuli was carried out in the presence of 0.25 mmol of GTP and heating the samples to 37° C.
The microtubulus formation was examined by means of turbidimetry at a wavelength of 340 nm.
Testing of the active ingredients was carried out by their addition at the beginning of the assembling or in the state of equilibrium. […] To monitor action and to evaluate the measured turbidity values, a transmission electron microscopic study (CEM 902 A, Zeiss/Oberkochen) of the assemblates was always performed after negative staining with 1% aqueous uranyl acetate.

As to `CC(=O)O[C@H]1C(=O)[C@@]2(C)[C@H]([C@H](OC(=O)c3ccccc3)[C@]3(O)C[C@H](OC(=O)[C@H](O)[C@@H](NC(=O)c4ccccc4)c4ccccc4)C(C)=C1C3(C)C)[C@]1(OC(C)=O)CO[C@@H]1C[C@@H]2O` [Taxol, reference compound], the IC50 in test [1] (Homo sapiens, 96 h) amounted to 4 nM; in test [2] (Homo sapiens, 96 h) it was 4 nM; in test [3] (Homo sapiens, DU-145, 96 h) it was 4 nM; in test [4] (Homo sapiens, HCT-116, 96 h), 4 nM; in test [5] (Homo sapiens, 96 h), 400 nM.

For `COc1cc2c(cc1OS(N)(=O)=O)CC[C@@H]1[C@@H]2CC[C@]2(C)C(=O)CCC[C@@H]12` [(1), 2-Methoxy-17a-oxo-17a-homoestra-1,3,5(10)-trien-3-yl Sulfamate], the half-maximal inhibitory concentration (IC50) in test [1] was 180 nM; in test [2], 220 nM; in test [3], 500 nM; in test [4] it was 180 nM; in test [5], under 100 nM.

As to `COc1cc2c(cc1O)CC[C@@H]1[C@@H]2CC[C@]2(C)[C@@H](O)CC[C@@H]12` [2-Methoxyestradiol, reference compound], the 50% inhibitory concentration (IC50) came to 1800 nM in test [1]; 2200 nM in test [2]; 1900 nM in test [3]; 1100 nM in test [4]; 200 nM in test [5]; 2700 nM in test [6].

In the case of `COc1cc2c(cc1OS(N)(=O)=O)CC[C@@H]1[C@@H]2CC[C@]2(C)[C@@H](OS(N)(=O)=O)CCC[C@@H]12` [(4), 2-Methoxy-17a-homoestra-1,3,5(10)-triene-3,17aβ-diyl Bissulfamate], the IC50 was 1800 nM in test [1]; 600 nM in test [2]; 2800 nM in test [3]; 1800 nM in test [4]; 800 nM in test [5].

Take `COc1cc2c(cc1OS(N)(=O)=O)CC[C@@H]1[C@@H]2CC[C@]2(C)CCCC[C@@H]12` [(2), 2-Methoxy-17a-homoestra-1,3,5(10)-trien-3-yl Sulfamate]: the IC50 in test [1] (Homo sapiens, 96 h) is 600 nM; in test [2] (Homo sapiens, 96 h), 500 nM; in test [3] (Homo sapiens, DU-145, 96 h) it was 600 nM; in test [4] (Homo sapiens, HCT-116, 96 h), 600 nM; in test [5] (Homo sapiens, 96 h) it was 200 nM; in test [6], 950 nM.
